Assay results published in article PMC10360056, “Chemical Evolution of Amphiphilic Xenopeptides for Potentiated Cas9 Ribonucleoprotein Delivery” (Journal of the American Chemical Society, 2023).

Tests used:
HeLa eGFP/tub cells = experiment: eGFP knockout study by Cas9 RNP nanocarriers, flow cytometry; type: cell-based; conditions: 1 nM RNP, 48 h treatment, N/P 24
Procedure: HeLa WT, HeLa eGFP/tub, HeLa GFPd2 (destabilized eGFP), CT26 eGFP/luc and N2a eGFP/luc cells were grown in DMEM medium supplemented with 10 % FBS, 100 U/mL penicillin, and 100 μg/mL streptomycin. The cells were cultured in ventilated flasks in the cell incubator at 37 °C and 5 % CO2 in a humidified atmosphere. The cells were passaged at a confluency of […]
Cells were harvested and resuspended in 600 μL of FACS buffer (PBS buffer containing 10 % FBS). The samples were ana-lyzed by flow cytometry on a CytoFLEX S flow cytometer (Beckman Coulter, CA, USA). For eGFP knockout and cellular uptake experiments, 0.6 μL of 1 μg/μL DAPI was added to each sample for differentiating live and dead cells before the measurement. The DAPI signal and BFP fluorescence were detected with 405 nm excitation and 450 nm emission. The eGFP and ATTO488 fluorescence was assayed with 488 nm excitation and 530 nm emission. The ATTO647N fluorescence was assayed with 640 nm excitation and 670 nm emission. Ten thousand of isolated live cells were counted and evaluated. The data were analyzed using FlowJo 7.6.5 by FlowJo, LLC (Becton, Dickinson and Company, USA). […]
Endosomal escape of Cas9 RNP nanocarriers […]
Next, the […]
cells were washed twice with PBS and then fixed with 4 % PFA at RT for 40 min. Afterwards, the cells were washed and incubated with 2 µg/mL DAPI (for staining cell nuclei) for 30 min. Then, the staining solution was removed and 300 μL fresh PBS were added. The slides w ere stored at 4 °C in the dark until the measurement. […]
Then, the image was conv erted into 8-bit type. The mRuby3/gal8 spots were further determined by Threshold tool, and the number of the spots in the cell cytosol per cell were counted by Analyze Particles tool.
One day prior to the treatments, HeLa eGFP/tub cell s were seeded into 96 -well plates at a density of 5000 cells/well. On the next day, the medium was replaced with 80 μL of fresh medium. 20 μL of Cas9 RNP nanocarriers were added to each well resulting in a series of concentrations of RNP (100, 75, 50, 25, 10, 5, 2.5, 1, 0.5, and 0.1 nM). Lipofectamine CRISPRMAX was tested at the same concentrations of RNP with the preparation procedures as recommended by the manufacturer. The cells were incubated for 48 h. Afterwards, the cells were trypsinized and transfer red to 24-well plates, and incubated for another 72 h. Then, the cells were harvested and prepared for flow cytometry analysis. All experiments were performed in triplicate. eGFP to BFP conversion (HDR) study
One day prior to the treatments, HeLa GFPd2 cel ls were seeded into 96 -well plates at a density of 5000 cells/well. On the next day, the medium was replaced with 80 μL of fresh medium. 20 μL of Cas9 RNP/ssDNA nanocarriers containing different molar ratios of RNP/ssDNA were added to each well resulting i n a series of concentrations of RNP (100, 75, 50, 25, 10, 5, 2.5, 1, 0.5, and 0.1 nM). Lipofectamine CRISPRMAX was tested at the same concentrations of RNP and ssDNA with the prepara-tion procedures as recommended by the manufacturer. The cells were incubat ed for 48 h. Afterwards, the cells were trypsinized and transferred to 24 -well plates, and incubated for another 72 h. Then, the cells were harvested and prepared for flow cytom-etry analysis. […]
Half maximal effective concentration (EC50) values were calculated by GraphPad prism 5. […] All other data were analyzed with GraphPad prism 5 and presented as arithmetic mean ± standard deviation (SD) of at least triplicates. […]

[1] = LogD7.4 determination of xenopeptides (octanol-water); type: physicochemical; conditions: shake-flask n-octanol/HEPES buffer (20 mM, pH 7.4); 10 μL of 10 mg/mL xenopeptide in water + 90 μL buffer + 100 μL n-octanol; shaken 1400 rpm 24 h; centrifuged, 4 °C 1 h; HPLC, extinction 280 nm; log(Aoctanol/Awater); triplicate
Procedure: LogD7.4 determination of xenopeptides
Octanol-water partition coefficient D at pH 7.4 (logD7.4) was determined as previously reported with slight modification.5
Scheme S3 illustrates the logD7.4 determination procedures of all xenopeptides in this study. Briefly, 10 μL of 10 mg/mL xenopeptides in water were diluted with 90 μL HEPES buffer (20 mM, pH 7.4) in 1.5 mL reaction tubes. 100 μL n-octanol were then added. The tubes were shaken at 1400 rpm for 24 h. Afterwards, the tubes were centrifuged followed by storage at 4 °C for 1 h to separate n-octanol and water phases. 70 μL of each phase were injected for HPLC analysis. The extinction at 280 nm was monitored and the peak area (A) of the xenopeptides was calculated. LogD7.4 was calculated as log(Aoctanol / Awater).
All experiments were performed in triplicate. […]
Cas9 RNP/ssDNA nanocarriers. […]

[2] = Characterization of Cas9 RNP nanocarriers by DLS (size, PDI, zeta potential); type: physicochemical; conditions: N/P ratio 24, RNP 75 nM, three technical replicates; for PDI of Cas9 RNP nanocarriers / hydrodynamic size (z-average) of Cas9 RNP nanocarriers: DLS, HBG pH 7.4, mean ± SD; for zeta potential of Cas9 RNP nanocarriers: electrophoretic light scattering, HEPES 20 mM pH 7.4, mean ± SD
Procedure: Preparation of Cas9 RNP and Cas9 RNP/ssDNA nanocarriers
Cas9 protein was expressed, purified, and stored at -80 °C in storage buffer (20 mM HEPES, 200 mM KCl, 10 mM MgCl 2, 1 mM DTT, 30 % glycerol) as described previously.6 Cas9 protein and sgRNA (dissolved in RNase-free water) were mixed at 1:1 molar ratio and incubated at RT for 15 min to form the Cas9/sgRNA ribonucleoprotein (RNP) complexes. Afterwards, Cas9 RNP was added into the xenopeptide solution in HBG buffer (pH 7.4) at an N/P (nitrogen t o phosphate of sgRNA) ratio of 24. The solution was mixed thoroughly by pipetting up and down and incubated at RT for another 15 min to generate the final Cas9 RNP nanocarriers. In case of preparing Cas9 RNP/ssDNA nanocarriers for HDR experiments, Cas9 RNP was mixed with ssDNA HDR template at 1:1 molar ratio and then added into the xenopeptide solution in HBG buffer (pH 7.4) at an N/P (nitrogen to phosphate of sgRNA plus ssDNA) ratio of 12. The solution was mixed and incubated for 40 min to generate the Cas9 RNP/ssDNA nanocarriers.
Characterization of Cas9 RNP nanocarriers
The hydrodynamic size, PDI and zeta potential of Cas9 RNP nanocarriers were measured by DLS using a Zetasizer Nano ZS (Malvern Instruments, UK). Cas9 RNP nanocarriers were prepared as desc ribed above. The hydrodynamic size of Cas9 RNP nanocarriers containing 1.25 μg Cas9 protein and 0.25 μg sgRNA (Cas9/sgRNA, 1:1 molar ratio) in 100 μL HBG was measured.
Afterwards, 700 μL HEPES buffer (20 mM, pH 7.4) were added to each sample and the soluti on was mixed for the zeta potential measurement. For the dilution stability study, Cas9 RNP nanocarriers were prepared at an RNP concentration of 375 nM (6.25 μg Cas9 protein and 1.25 μg sgRNA) and then diluted with HBG buffer to a series of RNP concentrat ions (75, 50, 25, 10, 5, 2.5, 1, 0.5, and 0.1 nM). The size and zeta potential of diluted samples were measured as described above.

Compound	logD [1]	PDI of Cas9 RNP nanocarriers [2]	hydrodynamic size (z-average) of Cas9 RNP nanocarriers [2] [nm]	zeta potential of Cas9 RNP nanocarriers [2] [mV]	eGFP knockout (HeLa eGFP/tub cells) [%]
CCCCC/C=C\C/C=C\CCCCCCCC(=O)NCCCC[C@H](NC(=O)CCCCCCC/C=C\C/C=C\CCCCC)C(=O)NCCCC[C@H](NC(=O)[C@H](Cc1c[nH]cn1)NC(=O)CCC(=O)NCCNCCNCCNCCNC(=O)[C@H](Cc1c[nH]cn1)NC(=O)[C@H](Cc1ccc(O)cc1)NC(=O)[C@H](Cc1ccc(O)cc1)NC(=O)[C@H](Cc1ccc(O)cc1)NC(=O)[C@@H](N)CCCCN=[N+]=[N-])C(=O)N[C@@H](Cc1c[nH]cn1)C(=O)NCCNCCNCCNCCNC(=O)CCC(=O)N[C@@H](Cc1c[nH]cn1)C(=O)N[C@@H](Cc1ccc(O)cc1)C(=O)N[C@@H](Cc1ccc(O)cc1)C(=O)N[C@@H](Cc1ccc(O)cc1)C(=O)O [Stp1-H-LinA]					~80
CCCCC/C=C\C/C=C\CCCCCCCC(=O)NCCCC[C@H](NC(=O)CCCCCCC/C=C\C/C=C\CCCCC)C(=O)NCCCC[C@H](NC(=O)CNCC(=O)NCCNCCNCCNCCNC(=O)[C@H](Cc1ccc(O)cc1)NC(=O)[C@H](Cc1ccc(O)cc1)NC(=O)[C@H](Cc1ccc(O)cc1)NC(=O)[C@@H](N)CCCCN=[N+]=[N-])C(=O)NCCNCCNCCNCCNC(=O)CNCC(=O)N[C@@H](Cc1ccc(O)cc1)C(=O)N[C@@H](Cc1ccc(O)cc1)C(=O)N[C@@H](Cc1ccc(O)cc1)C(=O)O [IDAtp1-LinA]	-1.11				

Second part, led by results:

logD [1]	PDI of Cas9 RNP nanocarriers [2]	hydrodynamic size (z-average) of Cas9 RNP nanocarriers [2] [nm]	zeta potential of Cas9 RNP nanocarriers [2] [mV]	Compound	eGFP knockout (HeLa eGFP/tub cells) [%]
-0.33				CCCCC/C=C\C/C=C\CCCCCCCC(=O)NCCCC[C@H](NC(=O)CCCCCCC/C=C\C/C=C\CCCCC)C(=O)NCCCC[C@H](NC(=O)CCCC(=O)NCCCNCCNCCCNC(=O)[C@H](Cc1ccc(O)cc1)NC(=O)[C@H](Cc1ccc(O)cc1)NC(=O)[C@H](Cc1ccc(O)cc1)NC(=O)[C@@H](N)CCCCN=[N+]=[N-])C(=O)NCCCNCCNCCCNC(=O)CCCC(=O)N[C@@H](Cc1ccc(O)cc1)C(=O)N[C@@H](Cc1ccc(O)cc1)C(=O)N[C@@H](Cc1ccc(O)cc1)C(=O)O [GEIPA1-LinA]	
-1.51	0.19 ± 0.02	189.1 ± 4.2	13.7 ± 1.2	CCCCC/C=C\C/C=C\CCCCCCCC(=O)NCCCC[C@H](NC(=O)CCCCCCC/C=C\C/C=C\CCCCC)C(=O)NCCCC[C@H](NC(=O)[C@H](Cc1c[nH]cn1)NC(=O)CNCC(=O)NCCNCCNCCNCCNC(=O)[C@H](Cc1c[nH]cn1)NC(=O)[C@H](Cc1ccc(O)cc1)NC(=O)[C@H](Cc1ccc(O)cc1)NC(=O)[C@H](Cc1ccc(O)cc1)NC(=O)[C@@H](N)CCCCN=[N+]=[N-])C(=O)N[C@@H](Cc1c[nH]cn1)C(=O)NCCNCCNCCNCCNC(=O)CNCC(=O)N[C@@H](Cc1c[nH]cn1)C(=O)N[C@@H](Cc1ccc(O)cc1)C(=O)N[C@@H](Cc1ccc(O)cc1)C(=O)N[C@@H](Cc1ccc(O)cc1)C(=O)O [IDAtp1-H-LinA]	
	0.28 ± 0.02	179.8 ± 5.3	13.4 ± 2.1	K(N3)-C-Y3-GEIPA2-K(K(OHSteA)2)-GEIPA2-Y3-C [GEIPA2-C-OHSteA, lipid-modified xenopeptide, X2-C-OHSteA architecture, artificial amino acid GEIPA]	
